Usually DC50 stands for the concentration at which degradation of the target reaches its halfway point.

In the assay the target is Protein cereblon/Serine/threonine-protein kinase B-raf (Homo sapiens, UniProt P15056+Q96SW2, V600E). Description: Protac activity at CRBN/BRAF V600E mutant (unknown origin) assessed as BRAF V600E degradation by HiBit cellular BRAF V600E degradation assay.
Chain of Protein cereblon/Serine/threonine-protein kinase B-raf (P15056 2-766 V600E limits assumed, stated change not applied): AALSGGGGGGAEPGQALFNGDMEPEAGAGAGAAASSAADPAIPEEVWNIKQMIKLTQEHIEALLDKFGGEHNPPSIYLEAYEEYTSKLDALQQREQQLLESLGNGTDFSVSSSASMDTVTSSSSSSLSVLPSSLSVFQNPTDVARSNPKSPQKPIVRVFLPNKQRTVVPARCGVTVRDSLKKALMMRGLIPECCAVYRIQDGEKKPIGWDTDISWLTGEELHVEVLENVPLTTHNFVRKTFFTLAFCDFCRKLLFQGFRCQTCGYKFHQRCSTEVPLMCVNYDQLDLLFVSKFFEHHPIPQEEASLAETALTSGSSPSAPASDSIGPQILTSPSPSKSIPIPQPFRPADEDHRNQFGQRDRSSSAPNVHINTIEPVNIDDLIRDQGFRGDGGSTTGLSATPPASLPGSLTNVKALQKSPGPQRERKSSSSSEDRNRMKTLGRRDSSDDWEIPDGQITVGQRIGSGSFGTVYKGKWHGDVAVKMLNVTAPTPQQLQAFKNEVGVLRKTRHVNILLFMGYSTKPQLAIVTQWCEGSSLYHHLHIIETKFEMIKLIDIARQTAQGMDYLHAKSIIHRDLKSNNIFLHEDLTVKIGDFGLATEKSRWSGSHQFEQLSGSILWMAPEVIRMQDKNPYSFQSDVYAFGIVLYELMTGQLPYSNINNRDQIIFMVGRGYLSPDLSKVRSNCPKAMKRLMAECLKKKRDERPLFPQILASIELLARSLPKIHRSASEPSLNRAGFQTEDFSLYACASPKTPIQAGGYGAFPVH
Chain of Protein cereblon/Serine/threonine-protein kinase B-raf (Q96SW2 whole entry, stated change not applied): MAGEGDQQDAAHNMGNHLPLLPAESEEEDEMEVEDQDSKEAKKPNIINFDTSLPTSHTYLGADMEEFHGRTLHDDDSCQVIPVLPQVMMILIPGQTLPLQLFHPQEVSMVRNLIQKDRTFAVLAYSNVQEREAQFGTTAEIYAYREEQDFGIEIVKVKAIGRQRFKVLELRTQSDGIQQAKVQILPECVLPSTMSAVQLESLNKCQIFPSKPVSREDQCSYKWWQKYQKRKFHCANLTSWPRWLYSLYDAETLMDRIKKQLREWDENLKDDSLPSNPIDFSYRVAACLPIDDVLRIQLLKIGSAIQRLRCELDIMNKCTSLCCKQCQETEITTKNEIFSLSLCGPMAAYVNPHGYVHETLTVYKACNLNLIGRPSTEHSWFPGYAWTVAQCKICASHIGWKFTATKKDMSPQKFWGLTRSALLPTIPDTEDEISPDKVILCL

With `CCN(C)S(=O)(=O)Nc1ccc(F)c(C(=O)c2c[nH]c3ncc(-c4ccc(N5CCN(C(=O)[C@H]6C[C@H](Nc7cccc8c7C(=O)N(C7CCC(=O)NC7=O)C8=O)C6)CC5)nc4)cc23)c1F` (stereo partly specified), the DC50 came out at 0.01 µM.

As for `CCN(C)S(=O)(=O)Nc1ccc(F)c(C(=O)c2c[nH]c3ncc(-c4cnc(N5CCN(C(=O)CCCOc6cccc7c6C(=O)N(C6CCC(=O)NC6=O)C7=O)CC5)nc4)cc23)c1F` (stereo unspecified), the DC50 came out at 0.02 µM.

Turning to `CCN(C)S(=O)(=O)Nc1ccc(F)c(C(=O)c2c[nH]c3ncc(-c4ccc(N5CCN(C(=O)CCCOc6cccc7c6C(=O)N(C6CCC(=O)NC6=O)C7=O)CC5)nc4)cc23)c1F` (stereo unspecified), the DC50 worked out at 0.01 µM.

Take `CCN(C)S(=O)(=O)Nc1ccc(F)c(C(=O)c2c[nH]c3ncc(-c4ccc(N5CCN(C(=O)[C@H]6C[C@H](Nc7cccc8c7C(=O)N(C7CCC(=O)NC7=O)C8=O)C6)CC5)cc4)cc23)c1F` (stereo partly specified): the half-maximal degradation concentration (DC50) is 0.023 µM.

Take `CCN(C)S(=O)(=O)Nc1ccc(F)c(C(=O)c2c[nH]c3ncc(-c4ccc(N5CCN(C(=O)CCCNc6cccc7c6C(=O)N(C6CCC(=O)NC6=O)C7=O)CC5)nc4)cc23)c1F` (stereo unspecified): the 50% degradation concentration (DC50) came to 0.026 µM.

Turning to `CCN(C)S(=O)(=O)Nc1ccc(F)c(C(=O)c2c[nH]c3ncc(-c4ccc(N5CCN(C(=O)CCCOc6cccc7c6C(=O)N(C6CCC(=O)NC6=O)C7=O)CC5)cc4)cc23)c1F` (stereo unspecified), the DC50 came to 0.016 µM.

(Values after ChEMBL document CHEMBL5046308, “Heterobifunctional Compounds as BRAF Degraders for Treating Cancer” (ACS Med Chem Lett, 2022).)
